Assay results taken from patent US5622951A, “Piperazine derivatives as 5-HT antagonists” (John Wyeth & Brother Ltd., priority 1993, dated 1997).

Experiments:
5-HT1A receptor [1] = target: T1, 5-HT1A receptor (Rattus norvegicus, UniProt P19327); test: 5-HT1A receptor binding in rat hippocampal membrane homogenate (Alexander and Wood)
T1 construct: rat hippocampal membrane homogenate; from tissue; host or cells: rat hippocampus, membrane homogenate
T1 sequence (P19327 1-422): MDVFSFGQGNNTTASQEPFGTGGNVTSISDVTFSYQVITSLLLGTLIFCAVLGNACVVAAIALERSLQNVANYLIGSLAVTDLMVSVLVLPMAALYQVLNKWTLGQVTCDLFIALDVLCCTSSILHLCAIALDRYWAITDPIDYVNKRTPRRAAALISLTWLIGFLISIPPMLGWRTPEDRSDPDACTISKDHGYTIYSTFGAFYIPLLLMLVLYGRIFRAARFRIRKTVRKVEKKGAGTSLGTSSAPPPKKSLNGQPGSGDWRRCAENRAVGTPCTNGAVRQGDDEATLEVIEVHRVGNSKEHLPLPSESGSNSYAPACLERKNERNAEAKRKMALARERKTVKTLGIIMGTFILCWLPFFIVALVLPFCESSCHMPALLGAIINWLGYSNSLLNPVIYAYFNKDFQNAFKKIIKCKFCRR
Protocol: The compounds of the invention were tested for 5-HT1A receptor binding activity in rat hippocampal membrane homogenate by the method of B S Alexander and M D Wood, J Pharm Pharmacol, 1988, 40, 888-891.

5-HT1A receptor [2] = target: T2, 5-HT1A receptor (Cavia porcellus, UniProt A0A286Y074); test: 5-HT1A receptor antagonism: antagonism of 5-carboxamidotryptamine in the guinea-pig ileum in vitro (Fozard et al); settings: read-out: pA2, 5-HT1A receptor antagonism (converted)
T2 construct: in the guinea-pig ileum in vitro; from tissue; host or cells: guinea-pig ileum, isolated
T2 sequence (A0A286Y074 1-421): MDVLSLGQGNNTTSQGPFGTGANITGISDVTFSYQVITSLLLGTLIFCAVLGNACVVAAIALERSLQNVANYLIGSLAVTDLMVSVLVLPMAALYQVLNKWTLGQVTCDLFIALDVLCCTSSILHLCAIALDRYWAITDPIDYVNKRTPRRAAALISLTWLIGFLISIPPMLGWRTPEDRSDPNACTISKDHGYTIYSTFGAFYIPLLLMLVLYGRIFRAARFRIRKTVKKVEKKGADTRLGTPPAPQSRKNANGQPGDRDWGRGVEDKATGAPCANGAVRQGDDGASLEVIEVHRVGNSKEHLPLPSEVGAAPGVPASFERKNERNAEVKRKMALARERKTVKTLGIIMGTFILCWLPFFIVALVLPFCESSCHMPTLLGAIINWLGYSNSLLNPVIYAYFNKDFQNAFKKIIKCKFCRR
Protocol: The compounds are tested for 5-HT1A receptor antagonism activity in a test involving the antagonism of 5-carboxamidotryptamine in the guinea-pig ileum in vitro (based upon the procedure of Fozard et at, Br J Pharmac, 1985, 86, 601P).

Row | IC50 (5-HT1A receptor [1]) [nM] | Kb (5-HT1A receptor [2]) [nM] | SMILES
1 | 1.84 |  | COc1ccccc1N1CCN(C2CC=C(c3ncc(C)cc3C)CC2)CC1 (stereo not shown) [Example 19, 1-(2-Methoxyphenyl)-4-[1-(3,5-dimethylpyridin-2-yl)-cyclohex-1-en-4-yl]piperazine]
2 | 0.6 | 0.794 | COc1ccccc1N1CCN([C@H]2CC[C@H](c3ccccc3)CC2)CC1 [Example 1 (trans), trans-1-(2-methoxyphenyl)-4-(1-phenylcyclohex-4-yl)piperazine]
3 | 1.6 |  | COc1ccccc1N1CCN([C@H]2CC[C@H](c3ncc(C)cc3C)CC2)CC1 [Example 20, Trans-1-(2-Methoxyphenyl)-4-[1-(3,5-dimethylpyridin-2-yl)-cyclohex-4-yl]piperazine]
